Assay results reported in US11999697B2, “Methods and compositions for inhibition of dihydroorotate dehydrogenase” (OHIO STATE INNOVATION FOUNDATION, priority 2018, dated 2024).
Where two headings read alike, the source gives them in different places.

What was measured:
OCI-AML3 = experiment: MTS cell proliferation assay, OCI-AML3; assay type: cell-based; details: Homo sapiens
Experimental: (§1) Triplicate wells were set up for each condition.
(§2) The assays were carried out in a blinded fashion.

MOLM-13 = experiment: MTS cell proliferation assay, MOLM-13; assay type: cell-based; details: Homo sapiens, 96 hours
Experimental: as §1, §2

HL-60 = experiment: MTS cell proliferation assay, HL-60; assay type: cell-based; details: Homo sapiens, 96 hours
Experimental: as §1, §2

THP1 = experiment: MTS cell proliferation assay, THP1; assay type: cell-based; details: Homo sapiens, THP-1, 96 hours
Experimental: as §1, §2

MV4-11 = experiment: MTS cell proliferation assay, MV4-11; assay type: cell-based; details: for IC50: Homo sapiens, MV4-11, MTS
DHODH = biological target: T1, DHODH (Homo sapiens, UniProt Q02127); experiment: DHODH enzymatic assay (DCIP reduction); assay type: biochemical; details: for DHODH inhibition, % inhibition: compound concentration not given; for IC50: range in parentheses, read-out: DHODH inhibition, IC50
T1 construct: made in house
Experimental: DHODH Enzymatic Assay: DHODH activity was determined at 25° C. following the reduction of 2,6-dichloroindophenol sodium salt (DCIP) at 600 nm (ε=18 800 M^−1 cm^−1) on a spectrophotometer. The reaction medium used contained 50 mM Tris-HCl, pH 8.0, 0.1% Triton X-100, 0.1 mM LDHO, 0.025 mM CoQ1, and 0.06 mM DCIP. The reaction was started by addition of the enzyme. The inhibitory potency of the compounds was evaluated by measuring the initial velocity of the reaction either in the absence or in the presence of the compounds at the indicated concentrations. The DHODH enzyme used was the recombinant human enzyme prepared as previously described (Helene Munier-Lehmann, et al., J. Med. Chem. 2015, 58:860-877).

[1] = OCI-AML-3, 96 hours, read-out: IC50 (μM) at 96 hours, OCI-AML3
[2] = 96 hours, read-out: IC50 (μM) at 96 hours, MV4-11
[3] = OCI-AML-3, 96 hour, Table 6, read-out: 96 hour IC50 (nM) in OCI-AML-3 cell line
[4] = 96 hour, Table 7, read-out: 96 hour IC50 (nM) in MV-411 cell line

T1 sequence (Q02127 whole entry): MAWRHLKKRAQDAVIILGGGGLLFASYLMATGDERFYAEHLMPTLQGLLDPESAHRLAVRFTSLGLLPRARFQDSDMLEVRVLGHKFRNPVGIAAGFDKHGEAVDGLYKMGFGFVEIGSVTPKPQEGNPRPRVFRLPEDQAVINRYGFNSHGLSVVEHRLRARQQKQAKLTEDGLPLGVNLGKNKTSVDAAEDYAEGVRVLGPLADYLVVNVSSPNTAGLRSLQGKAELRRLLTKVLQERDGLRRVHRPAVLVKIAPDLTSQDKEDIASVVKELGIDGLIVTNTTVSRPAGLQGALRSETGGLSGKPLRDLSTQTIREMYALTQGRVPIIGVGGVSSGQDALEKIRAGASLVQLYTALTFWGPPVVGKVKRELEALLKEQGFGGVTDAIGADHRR

CC1=C(/C=C/C(C)=C/C=C/C(C)=C/C(=O)O)C(C)(C)CCC1 [ATRA, all-trans-retinoic acid, reference compound]
IC50 (OCI-AML3; [1]): 0.09 µM | IC50 (MOLM-13): 3.06 µM

Cc1c(-c2ccc(-c3ccccc3F)cc2)nc2ccc(F)cc2c1C(=O)O [BQR•Na, reference compound]
IC50 (OCI-AML3; [1]): 0.4 µM | IC50 (HL-60): 0.23 µM | IC50 (THP1): 1 µM | IC50 (MV4-11; [2]): 0.49 µM | IC50 (MOLM-13): 0.48 µM

Cc1c(-c2ccc(-c3ccccc3F)cc2)nc2ccc(F)cc2c1C(=O)O [Brequinar, 6-fluoro-2-(2′-fluoro-1,1′-biphenyl-4-yl)-3-methyl-4-quinolinecarboxylic acid, reference compound]
IC50 (OCI-AML3; [3]): 0.314 µM | rescue of cytotoxic effects by uridine (MV4-11; 0.25 or 0.5 μM compound, uridine 0 to 200 μM, 96 hours): rescued by growth in the presence of uridine

COc1ccc(-c2ccc(-c3cc(C(=O)O)c4cc(Cl)ccc4n3)cc2)cc1 [Cpd5, 6-chloro-2-(4′-methoxy-[1,1′-biphenyl]-4-yl)quinoline-4-carboxylic acid]
IC50 (OCI-AML3; [1]): 3.37 µM | IC50 (HL-60): 20.9 µM | IC50 (THP1): 7.84 µM | IC50 (MV4-11; [2]): 6.96 µM | IC50 (MOLM-13): 3.02 µM | DHODH inhibition, % inhibition (DHODH): 95% | IC50 (DHODH): 0.099 µM

O=C(O)c1cc(-c2ccc(-c3ccc(F)cc3)cc2)nc2ccc(Cl)cc12 [Cpd6, 6-chloro-2-(4′-fluoro-[1,1′-biphenyl]-4-yl)quinoline-4-carboxylic acid]
IC50 (OCI-AML3; [1]): 6.25 µM | IC50 (HL-60): 3 µM | IC50 (THP1): 10.4 µM | IC50 (MV4-11; [2]): 6.48 µM | IC50 (MOLM-13): 6.91 µM | DHODH inhibition, % inhibition (DHODH): 99% | IC50 (DHODH): 0.076 µM

COc1ccc(-c2ccc(-c3cc(C(=O)O)c4cccc(F)c4n3)cc2)cc1 [Cpd8, 8-fluoro-2-(4′-methoxy-[1,1′-biphenyl]-4-yl)quinoline-4-carboxylic acid]
IC50 (OCI-AML3; [1]): 4.99 µM | IC50 (HL-60): 3.57 µM | IC50 (THP1): 11.6 µM | IC50 (MV4-11; [2]): 7.54 µM | IC50 (MOLM-13): 6.76 µM

Cc1c(-c2ccc(-c3ccc(F)cc3F)cc2)nc2c(F)cccc2c1C(=O)O [Cpd14, 2-(2′,4′-difluoro-[1,1′-biphenyl]-4-yl)-8-fluoro-3-methylquinoline-4-carboxylic acid]
IC50 (OCI-AML3; [1]): 11.2 µM | IC50 (HL-60): 9.48 µM | IC50 (THP1): 21.4 µM | IC50 (MV4-11; [2]): 14 µM | IC50 (MOLM-13): 8.63 µM

CCOc1ccc(-c2ccc(-c3cc(C(=O)O)c4cccc(F)c4n3)cc2)cc1 [Cpd16, 2-(4′-ethoxy-[1,1′-biphenyl]-4-yl)-8-fluoroquinoline-4-carboxylic acid]
IC50 (OCI-AML3; [1]): 2.9 µM | IC50 (HL-60): 1.69 µM | IC50 (THP1): 6.7 µM | IC50 (MV4-11; [2]): 6.23 µM | IC50 (MOLM-13): 3.42 µM

O=C(O)c1cc(-c2ccc(-c3ccc(C(F)(F)F)cc3)cc2)nc2ccc(-c3ccc(F)cc3)cc12 [Cpd17, 6-(4-fluorophenyl)-2-(4′-(trifluoromethyl)-[1,1′-biphenyl]-4-yl)quinoline-4-carboxylic acid]
DHODH inhibition, % inhibition (DHODH): 8%

Cc1c(-c2ccc(-c3ccc(F)cc3)cc2)nc2ccc(F)cc2c1C(=O)O [Cpd18, 6-fluoro-2-(4′-fluoro-[1,1′-biphenyl]-4-yl)-3-methylquinoline-4-carboxylic acid]
IC50 (OCI-AML3; [1]): 4.01 µM | IC50 (HL-60): 2.4 µM | IC50 (THP1): 9.34 µM | IC50 (MV4-11; [2]): 6.86 µM | IC50 (MOLM-13): 6.76 µM

COc1ccc(-c2ccc(-c3cc(C(=O)O)c4cc(F)ccc4n3)cc2)cc1 [Cpd20, 6-fluoro-2-(4′-methoxy-[1,1′-biphenyl]-4-yl)quinoline-4-carboxylic acid]
IC50 (MV4-11; [4]): 0.69 µM

CCCOc1ccc(-c2ccc(-c3cc(C(=O)O)c4cc(F)ccc4n3)cc2)cc1 [Cpd21, 6-fluoro-2-(4′-propoxy-[1,1′-biphenyl]-4-yl)quinoline-4-carboxylic acid]
IC50 (MV4-11; [4]): 0.06 µM

CCCCOc1ccc(-c2ccc(-c3cc(C(=O)O)c4cc(F)ccc4n3)cc2)cc1 [Cpd22, 2-(4′-butoxy-[1,1′-biphenyl]-4-yl)-6-fluoroquinoline-4-carboxylic acid]
IC50 (OCI-AML3; [3]): 0.155 µM | IC50 (MV4-11; [4]): 0.036 µM

CCCCCCCOc1ccc(-c2ccc(-c3cc(C(=O)O)c4cc(F)ccc4n3)cc2)cc1 [Cpd23, 6-fluoro-2-(4′-(heptyloxy)-[1,1′-biphenyl]-4-yl)quinoline-4-carboxylic acid]
IC50 (OCI-AML3; [3]): 0.0906 µM | IC50 (MV4-11; [4]): 0.018 µM

O=C(O)c1cc(-c2ccc(-c3ccccc3F)cc2)nc2ccc(F)cc12 [Cpd24, 6-fluoro-2-(2'-fluoro-[1,1′-biphenyl]-4-yl)quinoline-4-carboxylic acid]
IC50 (OCI-AML3; [3]): 0.0495 µM

CC(C)Oc1ccc(-c2ccc(-c3cc(C(=O)O)c4cc(F)ccc4n3)cc2)cc1 [Cpd25, 6-fluoro-2-(4′-isopropoxy-[1,1′-biphenyl]-4-yl)quinoline-4-carboxylic acid]
IC50 (OCI-AML3; [3]): 0.0676 µM

CC(C)COc1ccc(-c2ccc(-c3cc(C(=O)O)c4cc(F)ccc4n3)cc2)cc1 [Cpd26, 6-fluoro-2-(4′-isobutoxy-[1,1′-biphenyl]-4-yl)quinoline-4-carboxylic acid]
IC50 (OCI-AML3; [3]): 0.0893 µM

CCOc1ccccc1-c1ccc(-c2cc(C(=O)O)c3cc(F)ccc3n2)cc1 [Cpd27, 2-(2′-ethoxy-[1,1′-biphenyl]-4-yl)-6-fluoroquinoline-4-carboxylic acid]
IC50 (OCI-AML3; [3]): 0.637 µM

CCOc1cccc(-c2ccc(-c3cc(C(=O)O)c4cc(F)ccc4n3)cc2)c1 [Cpd28, 2-(3′-ethoxy-[1,1′-biphenyl]-4-yl)-6-fluoroquinoline-4-carboxylic acid]
IC50 (OCI-AML3; [3]): 0.0209 µM

CCCCCOc1ccc(-c2ccc(-c3cc(C(=O)O)c4cc(F)ccc4n3)cc2)cc1 [Cpd29, 6-fluoro-2-(4′-(pentyloxy)-[1,1′-biphenyl]-4-yl)quinoline-4-carboxylic acid]
IC50 (OCI-AML3; [3]): 0.0729 µM

CCCCCCOc1ccc(-c2ccc(-c3cc(C(=O)O)c4cc(F)ccc4n3)cc2)cc1 [Cpd30, 6-fluoro-2-(4′-(hexyloxy)-[1,1′-biphenyl]-4-yl)quinoline-4-carboxylic acid]
IC50 (OCI-AML3; [3]): 0.0761 µM

CCCCCCCCOc1ccc(-c2ccc(-c3cc(C(=O)O)c4cc(F)ccc4n3)cc2)cc1 [Cpd31, 6-fluoro-2-(4′-(octyloxy)-[1,1′-biphenyl]-4-yl)quinoline-4-carboxylic acid]
IC50 (OCI-AML3; [3]): 0.175 µM

CC(C)(C)Oc1ccc(-c2ccc(-c3cc(C(=O)O)c4cc(F)ccc4n3)cc2)cc1 [Cpd32, 2-(4′-(tert-butoxy)-[1,1′-biphenyl]-4-yl)-6-fluoroquinoline-4-carboxylic acid]
IC50 (OCI-AML3; [3]): 0.0503 µM

CC(C)CCOc1ccc(-c2ccc(-c3cc(C(=O)O)c4cc(F)ccc4n3)cc2)cc1 [Cpd33, 6-fluoro-2-(4′-(isopentyloxy)-[1,1′-biphenyl]-4-yl)quinoline-4-carboxylic acid]
IC50 (OCI-AML3; [3]): 0.0746 µM

CCOc1ccc(-c2ccc(-c3cc(C(=O)O)c4cc(F)ccc4n3)cc2)c(F)c1 [Cpd35, 2-(4′-ethoxy-2′-fluoro-[1,1′-biphenyl]-4-yl)-6-fluoroquinoline-4-carboxylic acid]
IC50 (OCI-AML3; [3]): 0.0877 µM

CCOc1ccc(-c2ccc(-c3cc(C(=O)O)c4cc(C(F)(F)F)ccc4n3)cc2)cc1 [Cpd36, 2-(4′-ethoxy-[1,1′-biphenyl]-4-yl)-6-(trifluoromethyl)quinoline-4-carboxylic acid]
IC50 (OCI-AML3; [3]): 0.33 µM

COCc1cccc(-c2ccc(-c3cc(C(=O)O)c4cc(F)ccc4n3)cc2)c1 [Cpd37, 6-fluoro-2-(3′-(methoxymethyl)-[1,1′-biphenyl]-4-yl)quinoline-4-carboxylic acid]
IC50 (OCI-AML3; [3]): 0.864 µM

COCc1ccc(-c2ccc(-c3cc(C(=O)O)c4cc(F)ccc4n3)cc2)cc1 [Cpd38, 6-fluoro-2-(4′-(methoxymethyl)-[1,1′-biphenyl]-4-yl)quinoline-4-carboxylic acid]
IC50 (OCI-AML3; [3]): 1.06 µM

COCc1ccccc1-c1ccc(-c2cc(C(=O)O)c3cc(F)ccc3n2)cc1 [Cpd39, 6-fluoro-2-(2'-(methoxymethyl)-[1,1′-biphenyl]-4-yl) quinoline-4-carboxylic acid]
IC50 (OCI-AML3; [3]): 0.0964 µM

O=C(O)c1cc(-c2ccc(-c3ccc(Oc4ccccc4)cc3)cc2)nc2ccc(F)cc12 [Cpd40, 6-fluoro-2-(4′-phenoxy-[1,1′-biphenyl]-4-yl)quinoline-4-carboxylic acid]
IC50 (MV4-11; [4]): 0.067 µM
